In ChEMBL document CHEMBL5308504, “Tm Shift (DSF) assay results for EUbOPEN Chemogenomics Library” (2023):
Where “and” joins values, the source holds several entries; their conditions need not be identical. Identical values can stand only once.

Legend:
[1] = target: Fibroblast growth factor receptor 3 (Homo sapiens) (UniProt P22607); conditions: Compound concentration 20.0 uM, Protein concentration 2.0 uM, Result type QC Liability
Description: Thermal Shift Assay. Domain: start/stop: P449-E759

Peregrin (Homo sapiens) = target: T1, Peregrin (Homo sapiens) (UniProt P55201); conditions: Compound concentration 20.0 uM, Protein concentration 2.0 uM, Result type QC Liability
T1 sequence (whole entry): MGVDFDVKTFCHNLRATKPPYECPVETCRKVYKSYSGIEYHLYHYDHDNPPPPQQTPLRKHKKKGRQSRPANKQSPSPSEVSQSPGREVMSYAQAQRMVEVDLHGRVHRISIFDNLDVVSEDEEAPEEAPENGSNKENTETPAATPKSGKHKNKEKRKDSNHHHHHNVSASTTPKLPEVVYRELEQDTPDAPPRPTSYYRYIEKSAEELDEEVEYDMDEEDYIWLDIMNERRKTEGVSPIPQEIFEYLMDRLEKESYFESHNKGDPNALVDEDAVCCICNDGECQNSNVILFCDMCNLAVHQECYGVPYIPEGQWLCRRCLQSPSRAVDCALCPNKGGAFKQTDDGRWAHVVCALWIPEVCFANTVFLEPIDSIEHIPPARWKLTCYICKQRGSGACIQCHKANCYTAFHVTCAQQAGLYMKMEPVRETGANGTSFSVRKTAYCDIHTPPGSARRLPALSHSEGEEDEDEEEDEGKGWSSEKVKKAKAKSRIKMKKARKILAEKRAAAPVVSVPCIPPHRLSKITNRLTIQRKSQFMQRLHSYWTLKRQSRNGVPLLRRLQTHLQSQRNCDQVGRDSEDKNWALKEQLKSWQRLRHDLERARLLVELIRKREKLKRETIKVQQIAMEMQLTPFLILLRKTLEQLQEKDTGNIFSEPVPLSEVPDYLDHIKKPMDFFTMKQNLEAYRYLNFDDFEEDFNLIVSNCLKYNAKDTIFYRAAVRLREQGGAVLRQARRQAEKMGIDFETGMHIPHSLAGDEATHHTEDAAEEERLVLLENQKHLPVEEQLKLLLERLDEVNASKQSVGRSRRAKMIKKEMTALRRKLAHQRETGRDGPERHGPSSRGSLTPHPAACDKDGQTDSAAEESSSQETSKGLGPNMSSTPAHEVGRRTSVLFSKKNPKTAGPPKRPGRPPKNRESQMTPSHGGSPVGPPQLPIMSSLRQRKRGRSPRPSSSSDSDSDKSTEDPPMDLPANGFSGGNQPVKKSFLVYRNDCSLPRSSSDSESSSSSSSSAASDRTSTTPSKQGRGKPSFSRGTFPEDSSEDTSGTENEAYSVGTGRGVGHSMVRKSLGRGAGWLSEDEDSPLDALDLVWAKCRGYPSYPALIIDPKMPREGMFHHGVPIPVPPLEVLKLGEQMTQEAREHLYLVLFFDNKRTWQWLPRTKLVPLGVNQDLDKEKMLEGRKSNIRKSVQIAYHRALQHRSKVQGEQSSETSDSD

Chain of Fibroblast growth factor receptor 3 (Homo sapiens) (P22607 23-806 limits assumed): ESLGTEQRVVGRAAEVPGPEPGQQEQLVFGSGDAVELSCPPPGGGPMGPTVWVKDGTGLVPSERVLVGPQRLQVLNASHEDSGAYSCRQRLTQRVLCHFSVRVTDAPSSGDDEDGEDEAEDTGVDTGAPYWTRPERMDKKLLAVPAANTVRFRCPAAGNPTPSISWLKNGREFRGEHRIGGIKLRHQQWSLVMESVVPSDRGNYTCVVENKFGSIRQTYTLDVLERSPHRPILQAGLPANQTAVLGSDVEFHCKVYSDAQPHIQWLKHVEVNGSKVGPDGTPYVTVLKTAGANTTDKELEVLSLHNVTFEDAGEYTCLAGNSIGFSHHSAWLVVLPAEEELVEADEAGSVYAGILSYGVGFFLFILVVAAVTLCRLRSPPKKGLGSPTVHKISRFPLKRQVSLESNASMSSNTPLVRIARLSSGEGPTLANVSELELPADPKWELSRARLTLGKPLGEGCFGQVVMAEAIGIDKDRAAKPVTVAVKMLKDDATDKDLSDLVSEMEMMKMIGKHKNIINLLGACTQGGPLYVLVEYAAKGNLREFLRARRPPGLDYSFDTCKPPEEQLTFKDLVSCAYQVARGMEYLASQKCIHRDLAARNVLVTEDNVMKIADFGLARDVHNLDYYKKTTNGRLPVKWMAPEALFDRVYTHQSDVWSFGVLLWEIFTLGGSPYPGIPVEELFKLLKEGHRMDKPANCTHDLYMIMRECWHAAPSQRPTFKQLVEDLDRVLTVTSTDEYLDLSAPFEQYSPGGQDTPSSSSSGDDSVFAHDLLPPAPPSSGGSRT

Structure (SMILES) | ΔTm [1] | ΔTm (Peregrin (Homo sapiens))
COc1cc(F)ccc1-c1cc(Nc2cc(CS(C)(=N)=O)ccn2)ncc1F (stereo not given) | 3.5 °C | -1.49 °C
CN(C)CCC[C@@]1(c2ccc(F)cc2)OCc2cc(C#N)ccc21 | 0.45 °C | -3.08 °C
N#Cc1cccc(-c2c[nH]c3ncnc(N4CCOCC4)c23)c1 | 2.14 °C | -1.1 °C
COc1ccc(OC(=O)N(CC(=O)O)Cc2ccc(OCCc3nc(-c4ccccc4)oc3C)cc2)cc1 | 0.89 °C | -1.99 °C
O=C(O)c1ccnc(N2CC(O)(c3ccc(OCc4c(-c5c(Cl)cccc5Cl)noc4C4CC4)cc3Cl)C2)c1 | 0.03 °C | -1.75 °C
CC[C@@H]1C(=O)N(C)c2cnc(Nc3ccc(C(=O)NC4CCN(C)CC4)cc3OC)nc2N1C1CCCC1 | 0.55 °C | 1.16 °C
CC1(C)C[C@@H]1C(=O)N/C(=C\CCCCSC[C@H](N)C(=O)O)C(=O)O | 0.5 °C | -2.3 °C
CC(C)N(C(=O)C1CCOCC1)c1cc(F)c(Oc2ncc(Cn3nccn3)cc2C(F)(F)F)cc1C(=O)O | 0.39 °C | -3.32 °C
CCN1CCN(Cc2ccc(Nc3ncc(F)c(-c4cc(F)c5nc(C)n(C(C)C)c5c4)n3)nc2)CC1 | 3.23 °C | -1.26 °C
CS(C)(=O)=Nc1ccc(-c2ccc(-c3nc4[nH]c(O[C@@H]5CO[C@H]6[C@@H]5OC[C@H]6O)nc4cc3Cl)cc2)cc1 | 0.49 °C | -3.2 °C
Clc1ccccc1C(c1ccccc1)(c1ccccc1)n1cccn1 | 0.25 °C | -3.65 °C
CCn1c(=O)c2c(C)c(C(=O)N3CCC(O)CC3)sc2n(CCC(F)(F)F)c1=O | 0.45 °C | -1.95 °C
COc1cnccc1Nc1nc(-c2nn(Cc3c(F)cc(OCCO)cc3F)c3ccccc23)ncc1OC | -7.58 °C | -6.89 °C
COc1cc(CN(CCN)C(=O)N[C@@H](C)c2ccccc2)ccc1OCc1ccccc1 | 0.47 °C | -2.05 °C
COc1cc(N2CCN(C)CC2)ccc1Nc1ncc2c(n1)N(C)c1ccccc1C(=O)N2CC(F)(F)F | 0.22 °C | -2.22 °C
CCc1ncnc(N2CCN(C(C)=O)CC2)c1C#Cc1ccc(N)nc1 | 0.7 °C | -1.29 °C
Cc1ccc(-n2nc(C(C)(C)C)cc2NC(=O)Nc2ccccc2F)cc1 | 2.28 °C | -0.3 °C
COc1ccc(CC[C@@H](OC(=O)[C@@H]2CCCCN2C(=O)[C@H](c2cc(OC)c(OC)c(OC)c2)C2CCCCC2)c2cccc(OCCN3CCOCC3)c2)cc1OC | -3.93 °C | -5.77 °C
C[C@]12CC[C@@H]3c4ccc(C(N)=O)cc4CC[C@H]3[C@@H]1CC=C2c1cncc(F)c1 | 0.92 °C | -4.27 °C
CN1CCN(c2ccnc(NCCc3ccccc3)n2)CC1 | 0.59 °C | -1.12 °C

Structure (SMILES) | ΔTm [1] | ΔTm (Peregrin (Homo sapiens))
CCn1c(CNC(=O)c2ncc(C)nc2N)[n+](CC)c2ccc(C(=O)N(C)CCN(C)C)cc21 | 0.52 °C | -1.78 °C
COc1cc(Cl)c(C(=O)N[C@@H](CN[C@H]2CC[C@@H](N)CC2)Cc2ccc(C#N)cc2)cc1-c1ccc(CN[C@H](C)c2ccc(C)cc2)o1 | 1.14 °C | -2.44 °C
COc1nc2ccc([C@@](O)(c3ccccc3)C3CCN(C(C)=O)CC3)cc2c(Cl)c1Cc1ccc(-n2cccn2)cc1 | 5.87 °C | -1.27 °C
CC(C)NC(=O)[C@H]1CCC[C@H]1Nc1nc(Nc2ccc(C(=O)N(C)C3CCN(C)CC3)cc2)ncc1Cl | 6.71 °C and 5.98 °C | -1.64 °C and -0.91 °C
Cc1nc2ccc(Oc3ccc(F)cc3)cc2c(=O)n1C[C@H]1CCCN(C(C)C)C1 | 0.96 °C | -2.47 °C
Cc1cc2nc(N3CCC(C(=O)NC4CCCC4)CC3)n(C(C)C)c2cc1C | 0.35 °C | -3.41 °C
Cc1cc2c(-c3ccco3)cnc(N[C@@H]3CCN(C)C[C@H]3C(=O)NC3CCCCC3)c2[nH]c1=O | 0.65 °C | -0.68 °C
CC(C)(O)[C@H](F)CN1Cc2cc(NC(=O)c3cnn4cccnc34)c(N3CCOCC3)cc2C1=O | 2.76 °C | -1.78 °C
CN[C@@H](C)C(=O)N[C@H]1CN(C(=O)CC(C)C)CC[C@H]2CC[C@@H](C(=O)NC(c3ccccc3)c3ccccc3)N2C1=O | 0.83 °C | -1.53 °C
CS(=O)(=O)NCC[C@H](NC(=O)c1cncc2c1cnn2-c1ccc(F)cc1)c1ccnc(S(C)(=O)=O)c1 | 0.62 °C | -1.91 °C
CCCc1c(OCCCOc2ccc(OCC(=O)O)cc2)ccc(C(C)=O)c1O | 0.12 °C | -1.78 °C
CC1CN(CC(=O)N2CC(C)(C)c3nc(CO)c(Cc4ccc(F)cc4)cc32)C(CN2CCOCC2C)CN1 (stereo not given) | 0.81 °C | -1.08 °C
Cc1cc(=O)n(C)c2cc(N3C(=O)CC[C@H](NS(=O)(=O)CC(C)C)[C@H]3c3ccc(Cl)cc3)ccc12 | 0.86 °C | -0.8 °C
CC(=O)N1CCN([C@H]2CCC[C@@H](NC(=O)c3cc4c(F)ccc(C)c4[nH]3)C2)CC1 | 0.6 °C | -1.84 °C
N=C(N)NCCC[C@H](NC(=O)CC1(CC(=O)N2CCN(C(c3ccccc3)c3ccccc3)CC2)CCCC1)C(=O)NCc1ccccc1 | 0.22 °C | -4.91 °C
CC[C@H](CC(=O)O)n1c(=O)c2ncccc2n(Cc2cn(C)c3cc(C)cc(C)c23)c1=O | 0.98 °C and 0.62 °C | -2.28 °C and -0.95 °C
COCCNC1CCC(Nc2cc(-c3csc(NCC4(C#N)CCOCC4)n3)c(Cl)cn2)CC1 (stereo not given) | 0.74 °C | 0.03 °C
CC(=O)c1c(C)c2cnc(Nc3ccc(N4CCNCC4)cn3)nc2n(C2CCCC2)c1=O | 0.56 °C and 0.64 °C | -1.97 °C and -1.31 °C
CC(=O)Nc1nc(C)c(S(=O)(=O)Nc2ccc(C(O)(C(F)(F)F)C(F)(F)F)cc2)s1 | 0.63 °C | -0.9 °C
Cc1cc(Cn2c(N3CC4(CNC4)C3)nc3c(N4CCN(C)CC4)cc(Cl)cc32)cc(C)c1F | 0.86 °C | -3.49 °C

Structure (SMILES) | ΔTm [1] | ΔTm (Peregrin (Homo sapiens))
CCOC(=O)/N=C(\N)c1ccc(OCc2cccc(COc3ccc(C(C)(C)c4ccc(OC(=O)OCC)cc4)cc3)c2)cc1 | 0.54 °C | -8.55 °C
Cn1cc(-c2ccc(-c3cncc(Cl)c3N3CCC4(CCNC4=O)CC3)cc2)cn1 | 0.5 °C | -1.65 °C
CN1CCN(C(=O)Cc2ccc(N/C(=C3\C(=O)Nc4cc(Cl)ccc43)c3ccccc3)cc2)CC1 | 5.68 °C | -2.46 °C
Cc1cc([N+](=O)[O-])c(NS(=O)(=O)c2cccc(C(=O)O)c2)cc1-c1cccnc1 | 0.67 °C | 0.37 °C
NS(=O)(=O)c1ccc(Nc2nc(OCC3CCCCC3)c3nc[nH]c3n2)cc1 | 0.37 °C | 1.2 °C
CO[C@H](C)CN1CC[C@]2(C)c3cccc(O)c3C[C@H]1C2(C)C | 0.41 °C | -1.37 °C
CNS(=O)(=O)c1ccc(N(C)C)c(Nc2ncnc3cc(OC)c(OC)cc23)c1 | 0.55 °C | -0.25 °C
C[C@H](CCC(=O)O)[C@H]1CC[C@H]2[C@@H]3[C@@H](O)C[C@@H]4C[C@H](O)CC[C@]4(C)[C@H]3CC[C@]12C | 0.96 °C | -1.31 °C
O=C(O)c1cccc(C2=C(c3cc(Cl)ccc3OCc3ccc(F)cc3F)CCC2)n1 | -0.33 °C | -5.87 °C
COc1cc(C(=O)NC2CCN(C)CC2)ccc1Nc1ncc2c(n1)N(C1CCCC1)CC(F)(F)C(=O)N2C | 0.42 °C | 1.14 °C
O=C(NC[C@@H]1[C@H]2CN(C(=O)OCc3cc(C(F)(F)F)cc(C(F)(F)F)c3)C[C@@H]12)c1ccc2[nH]nnc2c1 | 1.51 °C | -0.49 °C
Nc1ncnc2c1c(COc1cccc(Cl)c1)nn2C1CCOCC1 | 1.63 °C | -1.86 °C
CN(C)C(=O)Cn1cc(-c2nc(C3(c4ccc(-c5cnc(N)nc5)cc4)CC3)no2)cn1 | 0.55 °C | -2.76 °C
Clc1cccc(Nc2nccc(NCCCN3CCOCC3)n2)c1 | 1.15 °C | -1.42 °C
N=C(N)Nc1cc(C2CCNCC2)cc(C(F)(F)F)c1 | 0.42 °C | -2.37 °C
COc1ccc(-n2nc(C(F)(F)F)cc2-c2ccc(Cl)cc2)cc1 | 0.81 °C | -3.19 °C
CCc1ccc(-c2ncn(CC3(F)CCN(C)CC3)c2-c2ccnc3[nH]ccc23)nc1 | 0.58 °C | -1.47 °C
Fc1ccc(-c2nc(-c3ccc4ccccc4c3F)[nH]c2-c2ccncc2)cc1 | 1.19 °C | 0.17 °C
COc1ccccc1-c1cc(Nc2cccc(CS(N)(=O)=O)c2)ncn1 | 0.74 °C | -0.77 °C
CC1(C)C(=O)N([C@H]2CCc3c(O)cccc32)c2nc(Nc3cccc(CN4CCCC4)c3)ncc21 | 9.18 °C | -1.23 °C
